Measurements: patent US4840785A, “Mammal intestinal hormone precursor and its use” (priority 1985, dated 1989)
Where “and” joins values, the source holds several entries; their conditions need not be identical. Identical values can stand only once. No end group written: not given here.

What was measured:
[1] = tested on: pancreas of the anesthetized cat; experiment: secretin bioassay: stimulation of secretion of alkali in the pancreatic juice in the anesthetized cat; type: in vivo
Protocol: The biological activity was measured by the ability to stimulate the secretion of alkali in the pancreatic juice in the anesthetized cat (Mutt, v. and Soderberg, U. On the assay of secretin. Ark.Kem. 15, 63-68, 1959). The sample was compared to a secretin standard with an established activity of 3500 units per mg. […] Proteolytic fragmentation

[2] = tested on: pancreas of the anesthetized cat; conditions: standard used for comparison; cited from earlier work

Q: Which “ALKALI SECRETED” value ([1]; Cat. 1, dose 47 pmole) does the source give for “secretin (HSDGTFTSELSRLRDSARLQRLLQGLV-NH2; UniProt P63298 33-59, looked up) [porcine secretin, intestinal hormone peptide composed of 27 amino acid residues, C-terminal valine amidated]” here?
A: Its value is 130 μequiv. and 116 μequiv.

Q: And the “ALKALI SECRETED per dose” value ([1]; Cat. 1, dose 47 pmole)?
A: Its value is 2.7 μequiv.pmole and 2.5 μequiv.pmole.

Q: What about the “ALKALI SECRETED” value ([1]; Cat. 1, dose 94 pmole) of the same substance?
A: The value was 182 μequiv. and 170 μequiv.

Q: And the “ALKALI SECRETED per dose” value ([1]; Cat. 1, dose 94 pmole)?
A: The value was 1.9 μequiv.pmole and 1.8 μequiv.pmole.

Q: What about the “ALKALI SECRETED” value ([1]; Cat. 2, dose 47 pmole) of the same substance?
A: The value was 110 μequiv.

Q: What about the “ALKALI SECRETED per dose” value ([1]; Cat. 2, dose 47 pmole) of the same substance?
A: Its value is 2.3 μequiv.pmole.

Q: And the “ALKALI SECRETED” value ([1]; Cat. 2, dose 94 pmole)?
A: Its value is 150 μequiv.

Q: And the “ALKALI SECRETED per dose” value ([1]; Cat. 2, dose 94 pmole)?
A: Its value is 1.6 μequiv.pmole.

Q: What about the “established activity of secretin standard” value [2] of the same substance?
A: Its value is 3500 units per mg.
